Laboratory results taken from publication PMC6272399, “Anti-Proliferative Effect and Induction of Apoptosis in Androgen-Independent Human Prostate Cancer Cells by 1,5-Bis(2-hydroxyphenyl)-1,4-pentadiene-3-one” (Molecules, 2015).

Assays:
[1] = tested on: DU 145 cells; assay: MTT cytotoxicity (cell viability) assay, DU 145; assay type: cell-based, human; details: for dose from which decrease in cell viability is significant: DU 145, MTT, vs untreated; for EC50: Homo sapiens, DU-145, MTT, 72 h treatment, mean ± SD, three experiments, read-out: EC50 Values (µM) of Compounds on Cell Lines DU 145; for Selective index (SX) WI-38 vs DU 145: SX = EC50 (WI-38)/EC50 (DU 145) × 100; for Selective index (SX) WRL68 vs DU 145: SX = EC50 (WRL68)/EC50 (DU 145) × 100
Description: (§1) Cell viability was determined by the MTT [3-(4,5-dimethylthiazol-2-yl)-2,5-diphenyltetrazolium bromide] assay, as previously described by Mosmann with modifications. Briefly, cells were detached from the tissue culture flask and pelleted by centrifugation at 1000 rpm for 5 min. Then, the density of the viable cells was counted using a haemocytometer. Cells were then plated in a 96-well flat bottom micro-titer plate (Nunc) at a concentration of 10^4 cells/mL and incubated in a 5% CO2 incubator at 37 °C overnight to allow the cells to adhere to the bottom of the wells. After 24 h, the media was aspirated off and replaced with fresh media containing sample compounds (curcumin and curcumin analogues) of seven different concentrations ranging from 1.56 µM–100 µM and incubated at 37 °C, 5% CO2 for 72 h. Separately, the sample compounds were prepared in a stock solution of 50 mM in 100% dimethyl sulfoxide (DMSO, Molecular Biology Grade, Sigma-Aldrich, St. Louis, MO, USA) and diluted in the culture media to a working concentration of 200 µM. Curcumin, the parent compound which was used as the positive control was also prepared in the similar manner. A two-fold serial dilution was done for each sample in triplicates down the columns of the plate, yielding a final volume and concentration of 100 µL in 0.2% DMSO in each wells. Following treatment, 50 µL MTT solutions (0.5 mg/mL in PBS) was added to each well and incubated for another 4 h at 37 °C in a humidified 5% CO2 incubator. The supernatant was replaced with 100 µL of DMSO and the optical density (OD) was measured at 570/650 nm using a micro-plate ELISA reader (Bio-Rad Laboratories, Hercules, CA, USA). The percentage of viable cells was calculated based on the ratio of the corrected absorbance of sample-treated cells to the corrected absorbance of the control (0.2% DMSO-treated cells) multiplied by 100. The percentage of cell viability was determined as follows: % Cell viability= OD of treated cells /OD of control ×100
(§2) For each compound tested, the EC50 value was generated from the log dose-response curves for each cell line using the Graphpad Prism version 5.04 for Windows (Graphpad Software, La Jolla, CA, USA). […] Cytotoxicity of each tested compound is expressed as the EC50 value. Based on the EC50 values, selectivity index (SX) value was also determined. Selectivity index is a special parameter applied as a selectivity indicator of tested compounds towards cancer cells. The SX represents the ratio of EC50 value obtained in toxicity testing using the normal cell lines to the EC50 values of the toxicity testing of the cancer cells, and then multiplied by 100. All the compounds were assessed for their potential toxicity against normal, non-cancerous cells. […] The SX values were calculated using the following equation: SX = EC50 (normal cells)/EC50 (cancer cells) × 100

[2] = tested on: DU 145 cells; assay: BrdU cell proliferation assay, DU 145; assay type: cell-based, human; details: DU 145, BrdU
Description: (§3) The anti-proliferative effects of compound on treated cells, was measured using the BrdU cell proliferation assay kit (Roche Applied Science Diagnostics, Indianapolis, IN, USA) according to the manufacturer’s protocol. The assay was based on incorporation of BrdU during DNA synthesis in proliferating cells. Cells were plated at a concentration of 10^4 cells/mL in a 96-well microtiter plate and incubated overnight. The cells were treated with compounds and curcumin (concentrations ranging from 1.56 µM–100 µM) as positive control for 24, 48 and 72 h respectively. Then, BrdU labeling solution (5 µL, diluted by 1/100 in culture media) was added to each well and incubated for 2 h at 37 °C. The media was replaced with fix/denaturing solution (100 µL) and incubated for 30 min at room temperature. Then, the fix/denaturing solution was removed by tapping off and followed by addition of 50 µL anti-BrdU antibody (50 µL, diluted by 1/100 in dilution buffer) to each well and further incubated for another 90 min at room temperature. Next, the cells were washed 3 times with wash buffer and substrate solution (50 µL) was added to each well. The plate was left for 10 min at room temperature in the dark and the absorbance was measured at a wavelength of 370 nm with a reference wavelength of 492 nm using a micro-plate ELISA reader (Bio-Rad). The percentage of BrdU incorporation was determined based on the ratio of absorbance of sample treated-cells to absorbance of control (untreated cells/DMSO only) multiplied by 100.

[3] = tested on: PC-3 cells; assay: BrdU cell proliferation assay, PC-3; assay type: cell-based, human; details: PC-3, BrdU
Description: as §3

[4] = tested on: WI-38 (human lung fibroblast cells); assay: MTT cytotoxicity assay, normal WI-38; assay type: cell-based; details: normal cell line, 72 h treatment, mean ± SD, read-out: EC50 Values (µM) of Compounds on Cell Lines WI-38
Description: as §1, §2

[5] = tested on: WRL 68 (human epithelial hepatocytes); assay: MTT cytotoxicity assay, normal WRL 68; assay type: cell-based; details: WRL68, normal cell line, 72 h treatment, mean ± SD, read-out: EC50 Values (µM) of Compounds on Cell Lines WRL-68
Description: as §1, §2

[6] = tested on: PC-3 cells; assay: MTT cytotoxicity (cell viability) assay, PC-3; assay type: cell-based, human; details: for EC50: Homo sapiens, PC-3, MTT, 72 h treatment, mean ± SD, three experiments, read-out: EC50 Values (µM) of Compounds on Cell Lines PC-3; for dose from which decrease in cell viability is significant: PC-3, MTT, vs untreated; for Selective index (SX) WI-38 vs PC-3: SX = EC50 (WI-38)/EC50 (PC-3) × 100; for Selective index (SX) WRL68 vs PC-3: SX = EC50 (WRL68)/EC50 (PC-3) × 100
Description: as §1, §2

[7] = tested on: caspase-3 activity in PC-3 cells; assay: Caspase-3 colorimetric activity assay, PC-3; assay type: cell-based, human; details: PC-3, all time points, inhibitor control
Description: (§4) Caspase-3 activity was determined using the caspase-3 colorimetric assay kit (Sigma-Aldrich) according to manufacturer’s protocol. The assay is based on spectrophotometric detection of p-nitroanilide (pNA) a colored molecule, after its cleavage from the labeled substrate DEVD-pNA by the activity of caspase-3 enzyme. PC-3 and DU 145 cells were treated with MS17 at different concentrations (EC50, 2 × EC50, 3 × EC50) at various time points, 6, 12, 24, 48 and 72 h as appropriate. Following treatment, cells were washed with PBS and suspended with lysis buffer (50 mM HEPES, pH 7.4, 5 mM CHAPS, 5 mM DTT) for 30 min on ice at the concentration of 10^7 cells per 100 µL buffer. Cells were then spun for 30 min at 16,000× g, 4 °C. Protein lysate concentrations were measured based on the Bradford assay method using the Cayman Chemical protein determination kit (Cayman Chemical Company, Ann Arbor, MI, USA) based on the manufacturer’s protocol. Assay was performed on a 96-well micro-titer plate by adding equal amount of protein lysate (~100 µg) into wells containing the assay buffer (20 mM HEPES pH 7.4, 0.1% CHAPS, 5 mM DTT, 2 mM EDTA). Reaction was started by the addition of 10 µL of substrate Ac-DEVD-pNA (2 mM). The effect of Ac-DEVD-CHO, a caspase-3 inhibitor was also studied simultaneously on caspase-3 activity. Ten microliter of the inhibitor (200 µM) was added into the wells containing the protein lysate, assay buffer and the substrate. Caspase-3 activity was measured upon the release of pNA molecule, a pale yellow colored product using the micro-plate ELISA reader (Bio-Rad) at the wavelength of 405 nm. Relative caspase-3 activity was expressed as absorbance of enzyme activity compared with the control (untreated cells/DMSO only) based on the equation below: Relative caspase 3 activity= Absorbance of treated cells /Absorbance of control

[8] = tested on: caspase-3 activity in DU 145 cells; assay: Caspase-3 colorimetric activity assay, DU 145; assay type: cell-based, human; details: DU 145, all time points, inhibitor control
Description: as §4

Molecule | dose from which decrease in cell viability is significant [1] [µM] | EC50 [1] [µM] | Selective index (SX) WI-38 vs DU 145 [1] | Selective index (SX) WRL68 vs DU 145 [1] | concentration from which anti-proliferative activity is significant ([2]; 24 h) [µM] | concentration from which anti-proliferative activity is significant ([2]; 48 h) [µM] | concentration from which anti-proliferative activity is significant ([2]; 72 h) [µM] | concentration from which anti-proliferative activity is significant ([3]; 24 h) [µM] | concentration from which anti-proliferative activity is significant ([3]; 48 h) [µM] | concentration from which anti-proliferative activity is significant ([3]; 72 h) [µM] | EC50 [4] [µM] | EC50 [5] [µM] | EC50 [6] [µM] | dose from which decrease in cell viability is significant [6] [µM] | Selective index (SX) WI-38 vs PC-3 [6] | Selective index (SX) WRL68 vs PC-3 [6] | relative caspase-3 activity with caspase-3 inhibitor [7] | relative caspase-3 activity with caspase-3 inhibitor [8]
COc1cc(/C=C/C(=O)CC(=O)/C=C/c2ccc(O)c(OC)c2)ccc1O [Curcumin, diferuloylmethane, reference compound] | 50 | 32.5 ± 1.4 | 85.8 | 88.2 | 50 | 50 | 50 | 50 | 50 | 50 | 27.9 ± 2.9 | 28.7 ± 3.2 | 35.9 ± 2.9 | 50 | 77.5 | 79.8 |  | 
COc1cc(C=CC(=O)C=Cc2ccc(O)c(OC)c2)ccc1O [MS13, 1,5-bis(4-hydroxy-3-methoxyphenyl)-1,4-pentadiene-3-one] | 12.5 | 7.4 ± 2.6 | 127.2 | 117.3 | 12.5 | 12.5 | 25 | 12.5 | 12.5 | 12.5 | 9.4 ± 2.3 | 8.7 ± 0.2 | 7.5 ± 0.1 | 6.3 | 124.8 | 115.1 |  | 
O=C(C=Cc1cccc(F)c1)C=Cc1cccc(F)c1 [MS40E, 1,5-bis(3-fluorophenyl)-1,4-pentadiene-3-one] | 50 | 30.3 ± 1.9 | 93.5 | 100.0 | 50 | 50 | 50 | 50 | 50 | 50 | 28.4 ± 1.7 | 30.3 ± 2 | 28 ± 7.8 | 50 | 101.4 | 108.3 |  | 
O=C1C(=Cc2cccc(F)c2)CCCC1=Cc1cccc(F)c1 [MS49, 2,6-bis(3-fluorobenzylidene)cyclohexanone] | 25 | 12.3 ± 2.3 | 158.6 | 106.8 | 25 | 25 | 50 | 25 | 25 | 25 | 19.4 ± 7 | 13.1 ± 0.4 | 14.5 ± 1.2 | 12.5 | 134.3 | 90.4 |  | 
Ac-DEVD-CHO [reference compound] |  |  |  |  |  |  |  |  |  |  |  |  |  |  |  |  | relatively low expression levels | relatively low expression levels
